What is called IC50 is the concentration needed to halve the response being measured.

One compound from patent US20250353825A1, “CANNABICYCLOL DERIVATIVES AND PREPARATION METHODS THEREOF” (priority 2023, published 2025) can be followed below.

Holding throughout (assay type): cell-based
Data set [1] concerns HepG2-CSC. Briefly: Soft agar colony (clone) formation, HepG2-CSC. Conditions: crystal violet, FIG. 4, compound 3a 0, 5 and 5 [sic] μg/mL. How it is done:
(§1) […] of low-melting-point agarose was dissolved in 12.5 mL of ddH2O to prepare a 3.2% low-melting-point agarose gel. The low-melting-point agarose gel was sterilized by autoclaving at 121° C. and 0.12 MPa for 20 minutes. After sterilization, the low-melting-point agarose gel was maintained at 60° C. in a drying oven for further use.
(§2) 1.75 mL of 3.2% sterile low-melting-point agarose gel was taken, 5.25 mL of the corresponding complete medium was added, and the two were mixed thoroughly using a pipette to prepare a base gel at a concentration of 0.8%.
(§3) 1 mL of the base gel was added to each well of a 6-well plate, ensuring that the base gel evenly covered the bottom of each well. The plate was placed at 4° C. for 5 minutes to allow the gel to solidify. After the gel had fully solidified, the plate was warmed at 37° C. for 5 minutes.
(§4) 6 cells/cell lines (U251, SMMC7721, GSC-3, GSC-12, SMMC7721-CSC, and HepG2-CSC) were individually digested with 1× trypsin for 3 minutes. The corresponding complete culture medium (same as in the application example 1) was added to terminate the digestion. Cells were centrifuged at 1000 rpm for 3 minutes, and the cells were collected and counted. A total of 5×10^3 cells were added to each well, each group was set up with three replicates. […]

The test system of data set [2] is BXPC3. Briefly: MTS cell viability assay, BXPC3. As to conditions: Homo sapiens, BXPC-3; Table 7, 72 hours; read-out: IC50 against BXPC3. How it is done:
(§5) Primary viability screening: (1) the synthesized compounds 3a to 13d were respectively dissolved in DMSO to prepare a 40 μg/mL cannabicyclol and cannabicyclol derivative solutions.
(§6) (2) A control group: a 200 μL DMSO solvent.
(§7) (3) The solutions of compounds 3a to 13d were diluted in a twofold gradient to obtain cannabicyclol and cannabicyclol derivative solutions at concentrations of 40 μg/mL, 20 μg/mL, 10 μg/mL, 5 μg/mL, 2.5 μg/mL, 1.25 μg/mL, and 0.625 μg/mL, and 0.3125 μg/mL, respectively.
(§8) (4) Three glioblastoma stem cells (GSC-3, GSC-12, and GSC-18), three pancreatic cancer cell-derived stem cells (PANC-1-CSC, BXPC-3-CSC, and ASPC1-CSC), three liver cancer cell-derived stem cells (HepG2-CSC, MHCC97H-CSC, and SMMC7721-CSC), HEK-293T cells, 16 tumor cells (U251, U87, T98G, PANC1, BXPC3, ASPC1, HepG2, MHCC97H, SMMC7721, PC3, SKOV3, MDA-MB231, A549, HCT116, HEC-1B, MKN28), and differentiated glioblastoma stem cells (GSC-3diff and GSC-12diff) derived from GSC-3 and GSC-12 (all of the cells were provided by the Laboratory of Tumor Animal Model Preparation and Application Research, West China Hospital, Sichuan University) were inoculated into a 96-well plate at a concentration of 2×10^4 cells/well, and 100 μL of culture medium was then added to each well; […]
(§9) (10) The absorbance value at 490 nm was measured on an enzyme labeling apparatus, and the IC50 value was calculated.
For orientation: Tetrazolium dyes change colour on reduction, which living cells bring about.

Data set [3] relates to GSC-18. Briefly: MTS cell viability assay, GSC-18. Conditions: GSC18; Table 6, tumor stem cell, 72 hours; read-out: IC50 against GSC-18. How it is done:
as §5, §6, §7, §8, §9

Data set [4] concerns GSC-12diff. Briefly: MTS cell viability assay, differentiated glioblastoma stem cells GSC-12diff. Conditions: Table 7, 72 hours, read-out: IC50 against GSC-12diff. How it is done:
as §5, §6, §7, §8, §9

Data set [5] relates to SKOV3. Briefly: MTS cell viability assay, SKOV3. As to conditions: Homo sapiens, SK-OV-3; Table 7, 72 hours; read-out: IC50 against SKOV3. How it is done:
as §5, §6, §7, §8, §9

In data set [6] the test system is SMMC7721-CSC. Briefly: MTS cell viability assay, SMMC7721-CSC. As to conditions: Table 6, tumor stem cell, 72 hours; read-out: IC50 against SMMC7721-CSC. The procedure:
as §5, §6, §7, §8, §9

The test system of data set [7] is GSC-3 (3#-GSC). Briefly: MTS cell viability assay, glioblastoma stem cells GSC-3 (3#-GSC). The procedure: as §5, §6, §7
(4) Three glioblastoma stem cells (GSC-3, GSC-12, and GSC-18), three pancreatic cancer cell-derived stem cells (PANC-1-CSC, BXPC-3-CSC, and ASPC1-CSC), three liver cancer cell-derived stem cells (HepG2-CSC, MHCC97H-CSC, and SMMC7721-CSC), HEK-293T cells, 16 tumor cells (U251, U87, T98G, PANC1, BXPC3, ASPC1, HepG2, MHCC97H, SMMC7721, PC3, SKOV3, MDA-MB231, A549, HCT116, HEC-1B, MKN28), and differentiated glioblastoma stem cells (GSC-3diff and GSC-12diff) derived from GSC-3 and GSC-12 (all of the cells were provided by the Laboratory of Tumor Animal Model Preparation and Application Research, West China Hospital, Sichuan University) were inoculated into a 96-well plate at a concentration of 2×10^4 cells/well, and 100 μL of culture medium was then added to each well;
(5) 2) HEK-293T, GSC-3diff, GSC-12diff, and the 16 tumor cells were added with DMEM, 10% FBS, and 1% double antibody culture medium. Cancer stem cells (CSCs) were added with serum-free stem cell medium consisting of DMEM/F12, EGF (20 ng/mL), bFGF (20 ng/mL), B27 (1×), and 1% double antibody culture medium.
(6) Inoculated cells were put into a cell culture incubator for 24 hours, and after the cells were well adhered to the wall, the culture medium in the 96-well plate was discarded.
(7) 200 μL cannabicyclol and cannabicyclol derivatives solutions at different concentrations were added to the cultured cells.
(8) The experiment was set up with 3 replicates.
(9) The 96-well plate was placed in a cell culture incubator, and incubation was continued at 37° C. and 5% CO2 for 72 hours. Then, 100 μL of cannabicyclol and cannabicyclol derivative solution per well was discarded (100 μL of DMSO solvent was discarded for the control group), and 20 μL of LMTS (CellTiter AQueous Non-Radioactive Cell Proliferation Assay, #G3581) was mixed and continued to be placed in the cell incubator for 2 hours of incubation.
as §9

For data set [8], the system named is glioblastoma cell line U251. Briefly: Soft agar colony (clone) formation, U251. Conditions: crystal violet, FIG. 4, compound 3a 0, 5 and 5 [sic] μg/mL. How it is done: as §1, §2, §3, §4
For data set [9], the system named is PC3. Briefly: MTS cell viability assay, PC3. As to conditions: Homo sapiens, PC-3; Table 7, 72 hours; read-out: IC50 against PC3. How it is done: as §5, §6, §7, §8, §9
In data set [10] the test system is MKN28. Briefly: MTS cell viability assay, MKN28. As to conditions: Homo sapiens, MKN-28; Table 7, 72 hours; read-out: IC50 against MKN28. How it is done:
as §5, §6, §7, §8, §9

Values after ≈ are worked out from the molar mass of the structure shown. A value given as a limit tells only on which side of the number the result lay.

For `CCCCCc1cc(O)c2c(c1)OC1(C)CCC3C1C2C3(C)C` (stereo not drawn) [Compound 3a, cannabicyclol], the “colony formation of HepG2-CSC” value in data set [1] is recorded as “significantly inhibited”. In addition, the IC50 in [2] was greater than 40 µg/mL; in data set [3], 6.4 µg/mL (≈ 20.4 µM); in [4] it was 29.6 µg/mL (≈ 94.3 µM); in data set [5], greater than 40 µg/mL; in [6] it was 3.85 µg/mL (≈ 12.2 µM); in data set [7] (GSC-3, 72 h, read-out: IC50 against GSC-3) it was 3.85 µg/mL (≈ 12.2 µM). Further, the 50% inhibitory concentration (IC50) in data set [9] and in [10] was greater than 40 µg/mL in each case. Besides, the “selective anti-glioma stem cell viability” value in data set [7] (judged in words from preliminary viability screening against 3#-GSC, 293T and U251) is listed as “a certain degree of selective anti-glioma stem cell viability”. Also, the “Cell viability in 3#-GSC (%)” value in data set [7] (primary viability screening, 72 hours, MTS, test concentration not stated) is reported as 20%. For the same compound, the “colony formation of U251” value in data set [8] is on record as “significantly inhibited”.
